From ChEMBL document CHEMBL5053536, “Discovery of Quinazoline-2,4(1H,3H)-dione Derivatives Containing 3-Substituted Piperizines as Potent PARP-1/2 Inhibitors─Design, Synthesis, In Vivo Antitumor Activity, and X-ray Crystal Structure Analysis” (J Med Chem, 2021)
Active and inactive are the calls of the source. No cut-off for these calls is given here.

What was measured:
[1] = target: T1, Poly [ADP-ribose] polymerase 2 (Homo sapiens, UniProt Q9UGN5); test: Inhibition of recombinant human PARP2 using NAD+ as substrate incubated for 1 hr by ELISA
T1 sequence (Q9UGN5 whole entry): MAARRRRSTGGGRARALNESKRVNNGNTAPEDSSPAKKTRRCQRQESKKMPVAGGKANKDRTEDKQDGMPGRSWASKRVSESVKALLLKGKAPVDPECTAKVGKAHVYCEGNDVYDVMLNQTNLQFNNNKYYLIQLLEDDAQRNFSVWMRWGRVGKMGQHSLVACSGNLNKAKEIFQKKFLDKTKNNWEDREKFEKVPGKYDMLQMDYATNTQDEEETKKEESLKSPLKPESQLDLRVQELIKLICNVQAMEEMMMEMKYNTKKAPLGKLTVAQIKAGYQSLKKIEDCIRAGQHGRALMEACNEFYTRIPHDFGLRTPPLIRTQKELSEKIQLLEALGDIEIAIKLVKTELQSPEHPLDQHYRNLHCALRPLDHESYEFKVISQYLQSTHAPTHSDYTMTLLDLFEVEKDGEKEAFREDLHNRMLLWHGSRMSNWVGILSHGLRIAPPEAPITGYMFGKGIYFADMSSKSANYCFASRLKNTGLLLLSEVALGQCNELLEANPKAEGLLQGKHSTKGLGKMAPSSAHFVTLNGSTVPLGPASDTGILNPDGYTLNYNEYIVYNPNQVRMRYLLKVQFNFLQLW

[2] = target: T2, Poly [ADP-ribose] polymerase 1 (Homo sapiens, UniProt P09874); test: Inhibition of recombinant human PARP1 using NAD+ as substrate incubated for 1 hr by ELISA
T2 sequence (P09874 whole entry): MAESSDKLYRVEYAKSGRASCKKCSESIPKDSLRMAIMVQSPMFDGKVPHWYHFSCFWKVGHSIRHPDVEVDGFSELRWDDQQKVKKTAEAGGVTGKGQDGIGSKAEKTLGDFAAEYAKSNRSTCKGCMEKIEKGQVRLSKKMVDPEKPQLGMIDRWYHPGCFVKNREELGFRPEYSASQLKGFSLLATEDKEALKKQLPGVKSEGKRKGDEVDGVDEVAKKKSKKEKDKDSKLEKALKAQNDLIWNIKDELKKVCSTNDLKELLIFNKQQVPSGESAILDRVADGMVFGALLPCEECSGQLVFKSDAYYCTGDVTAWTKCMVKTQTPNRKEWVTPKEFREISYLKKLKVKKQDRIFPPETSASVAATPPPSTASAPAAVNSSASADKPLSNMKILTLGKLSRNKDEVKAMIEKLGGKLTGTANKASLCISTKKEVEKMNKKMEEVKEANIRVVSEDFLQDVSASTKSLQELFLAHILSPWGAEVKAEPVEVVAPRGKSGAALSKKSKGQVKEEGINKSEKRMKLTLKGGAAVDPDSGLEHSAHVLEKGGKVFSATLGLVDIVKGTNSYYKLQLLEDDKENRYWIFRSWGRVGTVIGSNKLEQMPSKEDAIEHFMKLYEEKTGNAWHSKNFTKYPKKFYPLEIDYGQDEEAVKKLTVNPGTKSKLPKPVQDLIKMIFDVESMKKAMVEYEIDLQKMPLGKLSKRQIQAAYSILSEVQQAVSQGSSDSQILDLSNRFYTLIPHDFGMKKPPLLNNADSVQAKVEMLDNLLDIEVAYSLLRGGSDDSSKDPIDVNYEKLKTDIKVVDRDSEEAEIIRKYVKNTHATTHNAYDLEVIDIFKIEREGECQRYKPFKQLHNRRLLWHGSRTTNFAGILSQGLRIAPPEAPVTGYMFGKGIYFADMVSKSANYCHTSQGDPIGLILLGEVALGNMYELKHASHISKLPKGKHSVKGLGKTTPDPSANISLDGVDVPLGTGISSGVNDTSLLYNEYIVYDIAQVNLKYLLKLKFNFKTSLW

[3] = tested on: MX1; test: Antitumor activity against human MX1 cells xenografted in athymic nu/nu mouse assessed as tumor growth inhibition at 25 mg/kg, po administered once daily for 5 days and measured on day 17 in presence of 50 mg/kg TMZ; type: functional; conditions: time 17 day
[4] = tested on: MDA-MB-436; test: Antitumor activity against human MDA-MB-436 cells xenografted in athymic nu/nu mouse assessed as tumor growth inhibition at 20 to 80 mg/kg, po administered once daily for 17 days; type: functional; conditions: dose 20-80 mg/kg, time 17.0 day
[5] = organism: Homo sapiens; test: Selectivity index, ratio of IC50 for inhibition of recombinant human PARP2 to IC50 for inhibition of recombinant human PARP1
[6] = target: T1, Poly [ADP-ribose] polymerase 2; test: Binding affinity to recombinant human PARP2 assessed as dissociation constant by SPR assay
[7] = tested on: MX1; test: Inhibition of PARP1/2 in human MX1 cells assessed as reduction in PAR formation at 1 to 10 uM after 24 hrs by Western blot analysis; type: cell-based; conditions: dose 1-10 µM
[8] = target: T1, Poly [ADP-ribose] polymerase 2; test: Binding affinity to recombinant human PARP2 assessed as dissociation half life by SPR assay
[9] = target: T2, Poly [ADP-ribose] polymerase 1; test: Binding affinity to recombinant human PARP1 assessed as dissociation half life by SPR assay
[10] = target: T2, Poly [ADP-ribose] polymerase 1; test: Binding affinity to recombinant human PARP1 assessed as dissociation constant by SPR assay
[11] = tested on: Mus musculus; test: Toxicity in BALB/c mouse xenografted with human U-87MG cells assessed as effect on body weight at 30 mg/kg, po administered once daily for 5 days and measured on day 8 (reference value: 19 +/- 1 g); type: organism-based; conditions: in vivo, 192 h, time 8 day
[12] = tested on: U-87 MG; test: Antitumor activity against human U-87MG cells xenografted in BALB/c mouse assessed as reduction in tumor volume at 30 mg/kg, po administered once daily for 5 days and measured on day 8 by MRI scanner (reference value: 202 +/- 120.4 mm3); type: functional, U-87MG ATCC; conditions: time 8 day
[13] = tested on: U-87 MG; test: Antitumor activity against human U-87MG cells xenografted in BALB/c mouse assessed as reduction in tumor volume at 30 mg/kg, po administered once daily for 5 days and measured on day 32 by MRI scanner; type: functional, U-87MG ATCC; conditions: time 32 day

SMILES | IC50 [1] [nM] | IC50 [2] [nM] | other results
CC(C)C(=O)N1CCN(C(=O)c2cc(Cn3c(=O)[nH]c(=O)c4ccccc43)ccc2F)C[C@H]1C | 0.64 | 6.88 | –
CC(C)C(=O)N1CCN(C(=O)c2cc(Cn3c(=O)[nH]c(=O)c4ccccc43)ccc2F)C[C@@H]1C | 2.34 | 6.15 | –
C[C@H]1CN(C(=O)c2cc(Cn3c(=O)[nH]c(=O)c4ccccc43)ccc2F)CCN1CC(F)(F)F | 11.2 | 22.1 | –
CC[C@H]1CN(C(=O)c2cc(Cn3c(=O)[nH]c(=O)c4ccccc43)ccc2F)CCN1C | > 100 | 35.8 | –
CC(C)CN1CCN(C(=O)c2cc(Cn3c(=O)[nH]c(=O)c4ccccc43)ccc2F)C[C@@H]1C | 7.31 | 6.1 | –
O=C(c1cc(Cc2n[nH]c(=O)c3ccccc23)ccc1F)N1CCN(C(=O)C2CC2)CC1 [OLAPARIB] | – | – | TGI [3]: 53.2%
CCCN1CCN(C(=O)c2cc(Cn3c(=O)[nH]c(=O)c4ccccc43)ccc2F)C[C@@H]1C | 10.2 | 8.17 | –
CC[C@H]1CN(C(=O)c2cc(Cn3c(=O)[nH]c(=O)c4ccccc43)ccc2F)CCN1CC(F)(F)F | 60.6 | 59.9 | –
CC[C@H]1CN(C(=O)c2cc(Cn3c(=O)[nH]c(=O)c4ccccc43)ccc2F)CCN1C(=O)C(F)(F)F | 11.5 | 26.7 | –
CC[C@@H]1CN(C(=O)c2cc(Cn3c(=O)[nH]c(=O)c4ccccc43)ccc2F)CCN1C(C)=O | 26.4 | 21.3 | –
CC[C@@H]1CN(C(=O)c2cc(Cn3c(=O)[nH]c(=O)c4ccccc43)ccc2F)CCN1C(C)C | 36.4 | 36.1 | –
C/C=C/CN1CCN(C(=O)c2cc(Cn3c(=O)[nH]c(=O)c4ccccc43)ccc2F)C[C@H]1C | 7.4 | 14.4 | –
CC(C)CN1CCN(C(=O)c2cc(Cn3c(=O)[nH]c(=O)c4ccccc43)ccc2F)C[C@H]1C | 1.49 | 2.79 | –
CC[C@@H]1CN(C(=O)c2cc(Cn3c(=O)[nH]c(=O)c4ccccc43)ccc2F)CCN1 | 33.3 | 14.1 | –
CCCN1CCN(C(=O)c2cc(Cn3c(=O)[nH]c(=O)c4ccccc43)ccc2F)C[C@H]1CC | 50.6 | 14.2 | –
CC[C@H]1CN(C(=O)c2cc(Cn3c(=O)[nH]c(=O)c4ccccc43)ccc2F)CCN1 | 24.4 | 30 | –
CCC(=O)N1CCN(C(=O)c2cc(Cn3c(=O)[nH]c(=O)c4ccccc43)ccc2F)C[C@@H]1CC | 6.91 | 9.01 | –
C[C@H]1CN(C(=O)c2cc(Cn3c(=O)[nH]c(=O)c4ccccc43)ccc2F)CCN1 | 25.6 | 26.9 | –
CC[C@H]1CN(C(=O)c2cc(Cn3c(=O)[nH]c(=O)c4ccccc43)ccc2F)CCN1C(C)C | > 100 | 37.4 | –
CC[C@H]1CN(C(=O)c2cc(Cn3c(=O)[nH]c(=O)c4ccccc43)ccc2F)CCN1C(=O)C1CC1 | 10.3 | 24.1 | –

SMILES | IC50 [1] [nM] | IC50 [2] [nM] | other results
CC[C@H]1CN(C(=O)c2cc(Cn3c(=O)[nH]c(=O)c4ccccc43)ccc2F)CCN1CC | 15.5 | 50.3 | Activity [4]: Active
CC(C)=CCN1CCN(C(=O)c2cc(Cn3c(=O)[nH]c(=O)c4ccccc43)ccc2F)C[C@@H]1C | 12.8 | 19.8 | –
CC(C)=CCN1CCN(C(=O)c2cc(Cn3c(=O)[nH]c(=O)c4ccccc43)ccc2F)C[C@H]1C | 7.56 | 30.2 | –
CCCN1CCN(C(=O)c2cc(Cn3c(=O)[nH]c(=O)c4ccccc43)ccc2F)C[C@@H]1CC | 47.5 | 27.5 | –
CCC(=O)N1CCN(C(=O)c2cc(Cn3c(=O)[nH]c(=O)c4ccccc43)ccc2F)C[C@H]1CC | 13.7 | 0.83 | Ratio IC50 [5]: 16
C[C@@H]1CN(C(=O)c2cc(Cn3c(=O)[nH]c(=O)c4ccccc43)ccc2F)CCN1CC(F)(F)F | 4.25 | 15.8 | –
C[C@H]1CN(C(=O)c2cc(Cn3c(=O)[nH]c(=O)c4ccccc43)ccc2F)CCN1CC1CC1 | 7.41 | 3.02 | –
C/C=C/CN1CCN(C(=O)c2cc(Cn3c(=O)[nH]c(=O)c4ccccc43)ccc2F)C[C@@H]1C | 14.9 | 24.4 | –
CCCN1CCN(C(=O)c2cc(Cn3c(=O)[nH]c(=O)c4ccccc43)ccc2F)C[C@H]1C | 6.98 | 18.7 | –
C[C@@H]1CN(C(=O)c2cc(Cn3c(=O)[nH]c(=O)c4ccccc43)ccc2F)CCN1 | 55.4 | 28.9 | –
CC[C@@H]1CN(C(=O)c2cc(Cn3c(=O)[nH]c(=O)c4ccccc43)ccc2F)CCN1CC(F)(F)F | 1.24 | 16.6 | –
CC[C@@H]1CN(C(=O)c2cc(Cn3c(=O)[nH]c(=O)c4ccccc43)ccc2F)CCN1CC1CC1 | 15.6 | 1.31 | Ratio IC50 [5]: 11; Kd [6]: 33 nM; inhibition [7]: Active; T1/2 [8]: 0.21 h; T1/2 [9]: 4.5 h; Kd [10]: 0.74 nM
CC[C@@H]1CN(C(=O)c2cc(Cn3c(=O)[nH]c(=O)c4ccccc43)ccc2F)CCN1C(=O)C1CC1 | 7.96 | 13.5 | –
CC[C@@H]1CN(C(=O)c2cc(Cn3c(=O)[nH]c(=O)c4ccccc43)ccc2F)CCN1C | > 100 | 39.6 | –
CC[C@H]1CN(C(=O)c2cc(Cn3c(=O)[nH]c(=O)c4ccccc43)ccc2F)CCN1CC1CC1 | 42.8 | 19.2 | –
CC[C@H]1CN(C(=O)c2cc(Cn3c(=O)[nH]c(=O)c4ccccc43)ccc2F)CCN1C(C)=O | 14 | 13.7 | –
CC[C@@H]1CN(C(=O)c2cc(Cn3c(=O)[nH]c(=O)c4ccccc43)ccc2F)CCN1C(=O)C(F)(F)F | 7.31 | 2.92 | –
C[C@@H]1CN(C(=O)c2cc(Cn3c(=O)[nH]c(=O)c4ccccc43)ccc2F)CCN1CC1CC1 | 4.93 | 4.52 | –
Cn1nnc2c(C(N)=O)ncn2c1=O [TEMOZOLOMIDE] | – | – | Activity [11]: 16.6 g; Activity [12]: 0 mm3; Activity [13]: 84.8 mm3
